Measured values reported in ChEMBL document CHEMBL1201862, “PubChem BioAssay data set” (2004).
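Exposure lasted 48 hours, with cells grown in 96-well plates and compounds tested at five concentrations. GI50 = concentration required for 50% inhibition of growth.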 Activity calls are given as the source filed them. No stated cut-off is given here; in the data, active = GI50 up to about 1.1 µM and inactive = higher.

Assays:
Assay in all cases: NCI tumour cell line growth inhibition, 48 h
HCT-116 = system: HCT-116
RXF 393 = system: RXF 393
TK-10 = system: TK-10
U-251 = system: U-251
UACC-257 = system: UACC-257
NCI-H460 = system: NCI-H460
SW-620 = system: SW-620
HOP-62 = system: HOP-62
A549 = system: A549
HOP-92 = system: HOP-92
SF-539 = system: SF-539
SK-MEL-2 = system: SK-MEL-2
Malme-3M = system: Malme-3M
MOLT-4 = system: MOLT-4
OVCAR-5 = system: OVCAR-5
IGROV-1 = system: IGROV-1
K562 = system: K562

Row | Compound | GI50 (HCT-116) | GI50 (RXF 393) | GI50 (TK-10) | GI50 (U-251) | GI50 (UACC-257) | GI50 (NCI-H460) | GI50 (SW-620) | GI50 (HOP-62) | GI50 (A549) | GI50 (HOP-92) | GI50 (SF-539) | GI50 (SK-MEL-2) | GI50 (Malme-3M) | GI50 (MOLT-4) | GI50 (OVCAR-5) | GI50 (IGROV-1) | GI50 (K562)
1 | C=CCNC1=NC(=O)C(CC(=O)Nc2ccc([N+](=O)[O-])cc2[N+](=O)[O-])S1 (stereo not given) | > 100 µM (inactive) | > 100 µM (inactive) | 98.6 µM (inactive) | > 100 µM (inactive) | > 100 µM (inactive) | > 100 µM (inactive) | > 100 µM (inactive) | > 100 µM (inactive) | > 100 µM (inactive) | 85.7 µM (inactive) | > 100 µM (inactive) | > 100 µM (inactive) | > 100 µM (inactive) | > 100 µM (inactive) | > 100 µM (inactive) | > 100 µM (inactive) | 
2 | CC[C@@]12N=C(N(C)C)C[C@]1(O)ON=C2C | > 100 µM (inactive) | > 100 µM (inactive) | > 100 µM (inactive) | > 100 µM (inactive) |  | > 100 µM (inactive) | > 100 µM (inactive) |  | > 100 µM (inactive) | > 100 µM (inactive) | > 100 µM (inactive) | > 100 µM (inactive) | > 100 µM (inactive) | > 100 µM (inactive) |  | > 100 µM (inactive) | > 100 µM (inactive)
3 | N#CC1C(C#N)C2(c3ccccc3)C(c3ccccc3)=NN(c3ccccc3)CC12 (stereo not given) | > 100 µM (inactive) | > 100 µM (inactive) | > 100 µM (inactive) | > 100 µM (inactive) | > 100 µM (inactive) | > 100 µM (inactive) | > 100 µM (inactive) |  | > 100 µM (inactive) |  | > 100 µM (inactive) | > 100 µM (inactive) | > 100 µM (inactive) | 16.8 µM (inactive) | > 100 µM (inactive) | > 100 µM (inactive) | > 100 µM (inactive)
4 | O=C(O)c1ccc(C2=Cc3cc(Cl)ccc3OC2)cc1 | > 100 µM (inactive) | > 100 µM (inactive) | > 100 µM (inactive) | > 100 µM (inactive) | > 100 µM (inactive) | > 100 µM (inactive) | > 100 µM (inactive) | > 100 µM (inactive) | > 100 µM (inactive) | > 100 µM (inactive) | > 100 µM (inactive) | > 100 µM (inactive) | > 100 µM (inactive) | > 100 µM (inactive) | > 100 µM (inactive) | > 100 µM (inactive) | > 100 µM (inactive)
5 | CC(C)(C)c1cc(C(=O)O)c2c(c1)C(=O)OC2(c1ccccc1)c1ccccc1C(=O)O (stereo not given) | > 100 µM (inactive) | > 100 µM (inactive) | > 100 µM (inactive) | 0.0448 µM (active) | > 100 µM (inactive) | > 100 µM (inactive) | > 100 µM (inactive) | > 100 µM (inactive) | > 100 µM (inactive) | > 100 µM (inactive) | > 100 µM (inactive) | > 100 µM (inactive) | > 100 µM (inactive) | > 100 µM (inactive) | > 100 µM (inactive) |  | > 100 µM (inactive)
6 | O=C(OCC1CO1)c1cccs1 (stereo not given) |  | > 100 µM (inactive) | > 100 µM (inactive) |  | > 100 µM (inactive) | > 100 µM (inactive) | > 100 µM (inactive) | > 100 µM (inactive) | > 100 µM (inactive) | 65.6 µM (inactive) |  | > 100 µM (inactive) | > 100 µM (inactive) | > 100 µM (inactive) | > 100 µM (inactive) | > 100 µM (inactive) | > 100 µM (inactive)
7 | CC1=C(C(=O)Nc2ccccc2)C(c2cc(Cl)cc(Cl)c2)C(C(=O)Nc2ccccc2)=C(C)N1 | 9.53 µM (inactive) | 12.9 µM (inactive) | 16.7 µM (inactive) | 3.33 µM (inactive) | 12.3 µM (inactive) | 18.6 µM (inactive) | 8.28 µM (inactive) | 13.6 µM (inactive) | 20.8 µM (inactive) |  | 14.8 µM (inactive) | 12.1 µM (inactive) | 14.4 µM (inactive) | 3.54 µM (inactive) | 19.4 µM (inactive) | 16.1 µM (inactive) | 1.35 µM (inactive)
8 | Cc1ccccc1-c1c(N)nc(N)nc1C(=O)Nc1nccs1 | > 100 µM (inactive) | > 100 µM (inactive) | > 100 µM (inactive) | > 100 µM (inactive) | > 100 µM (inactive) | > 100 µM (inactive) | > 100 µM (inactive) | > 100 µM (inactive) | > 100 µM (inactive) | > 100 µM (inactive) | > 100 µM (inactive) | > 100 µM (inactive) | > 100 µM (inactive) | > 100 µM (inactive) | > 100 µM (inactive) | > 100 µM (inactive) | > 100 µM (inactive)
9 | COc1cc(/C=C\c2ccc(O)cc2)cc(OC)c1OC | 3.96 µM (inactive) | 3.78 µM (inactive) | 18.2 µM (inactive) | 3.01 µM (inactive) | 17.3 µM (inactive) | 3.33 µM (inactive) | 2.65 µM (inactive) |  | 6.1 µM (inactive) | 0.293 µM (active) | 2.82 µM (inactive) | 2.64 µM (inactive) | 4.25 µM (inactive) | 4.24 µM (inactive) | 98.9 µM (inactive) | 5.24 µM (inactive) | 
